Publication PMC6138237, “Machine intelligence decrypts β-lapachone as an allosteric 5-lipoxygenase inhibitor” (Chemical Science, 2018)
Read-outs that look alike come from different tables or passages of the source.

Legend:
Format in all cases: biochemical
Src = Src (Homo sapiens, UniProt P12931); experiment: ExpresS Diversity Kinase Profile, Cerep (LANCE): Src
TAOK2 = target: T1, TAOK2 (Homo sapiens, UniProt Q9UL54); experiment: ExpresS Diversity Kinase Profile, Cerep (LANCE): TAOK2
T1 sequence (Q9UL54 1-1235): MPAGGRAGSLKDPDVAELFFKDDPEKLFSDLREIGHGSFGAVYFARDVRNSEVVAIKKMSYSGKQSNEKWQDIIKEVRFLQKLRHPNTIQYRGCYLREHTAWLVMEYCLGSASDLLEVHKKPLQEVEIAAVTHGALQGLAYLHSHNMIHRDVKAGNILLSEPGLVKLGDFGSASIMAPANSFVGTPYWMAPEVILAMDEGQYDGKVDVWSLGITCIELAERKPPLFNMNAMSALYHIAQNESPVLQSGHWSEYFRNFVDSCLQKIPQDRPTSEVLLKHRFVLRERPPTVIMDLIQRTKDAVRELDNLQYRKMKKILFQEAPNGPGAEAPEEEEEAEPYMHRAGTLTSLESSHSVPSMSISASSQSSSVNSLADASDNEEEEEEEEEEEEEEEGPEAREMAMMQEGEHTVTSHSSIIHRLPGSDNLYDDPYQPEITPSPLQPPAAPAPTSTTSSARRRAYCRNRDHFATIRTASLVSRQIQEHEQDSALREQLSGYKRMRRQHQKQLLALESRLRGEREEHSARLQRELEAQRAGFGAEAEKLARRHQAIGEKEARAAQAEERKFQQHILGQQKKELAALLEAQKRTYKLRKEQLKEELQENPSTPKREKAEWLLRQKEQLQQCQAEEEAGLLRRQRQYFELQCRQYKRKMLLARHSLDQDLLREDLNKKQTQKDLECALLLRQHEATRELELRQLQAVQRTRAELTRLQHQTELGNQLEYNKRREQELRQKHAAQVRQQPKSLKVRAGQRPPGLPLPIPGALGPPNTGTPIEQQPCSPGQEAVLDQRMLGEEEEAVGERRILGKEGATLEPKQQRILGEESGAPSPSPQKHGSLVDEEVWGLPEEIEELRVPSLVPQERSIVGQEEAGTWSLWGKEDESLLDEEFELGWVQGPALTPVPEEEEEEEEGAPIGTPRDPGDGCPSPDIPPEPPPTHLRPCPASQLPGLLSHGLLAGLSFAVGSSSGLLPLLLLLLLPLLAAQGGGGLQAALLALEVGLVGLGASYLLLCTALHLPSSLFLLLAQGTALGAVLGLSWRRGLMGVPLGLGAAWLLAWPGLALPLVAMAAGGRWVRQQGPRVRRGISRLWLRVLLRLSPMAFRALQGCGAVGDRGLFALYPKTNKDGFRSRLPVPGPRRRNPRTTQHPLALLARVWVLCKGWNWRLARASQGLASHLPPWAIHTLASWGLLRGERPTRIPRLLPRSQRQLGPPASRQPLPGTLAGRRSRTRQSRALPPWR

JAK3 = target: T2, JAK3 (Homo sapiens, UniProt P52333); experiment: ExpresS Diversity Kinase Profile, Cerep (LANCE): JAK3
T2 sequence (P52333 1-1124): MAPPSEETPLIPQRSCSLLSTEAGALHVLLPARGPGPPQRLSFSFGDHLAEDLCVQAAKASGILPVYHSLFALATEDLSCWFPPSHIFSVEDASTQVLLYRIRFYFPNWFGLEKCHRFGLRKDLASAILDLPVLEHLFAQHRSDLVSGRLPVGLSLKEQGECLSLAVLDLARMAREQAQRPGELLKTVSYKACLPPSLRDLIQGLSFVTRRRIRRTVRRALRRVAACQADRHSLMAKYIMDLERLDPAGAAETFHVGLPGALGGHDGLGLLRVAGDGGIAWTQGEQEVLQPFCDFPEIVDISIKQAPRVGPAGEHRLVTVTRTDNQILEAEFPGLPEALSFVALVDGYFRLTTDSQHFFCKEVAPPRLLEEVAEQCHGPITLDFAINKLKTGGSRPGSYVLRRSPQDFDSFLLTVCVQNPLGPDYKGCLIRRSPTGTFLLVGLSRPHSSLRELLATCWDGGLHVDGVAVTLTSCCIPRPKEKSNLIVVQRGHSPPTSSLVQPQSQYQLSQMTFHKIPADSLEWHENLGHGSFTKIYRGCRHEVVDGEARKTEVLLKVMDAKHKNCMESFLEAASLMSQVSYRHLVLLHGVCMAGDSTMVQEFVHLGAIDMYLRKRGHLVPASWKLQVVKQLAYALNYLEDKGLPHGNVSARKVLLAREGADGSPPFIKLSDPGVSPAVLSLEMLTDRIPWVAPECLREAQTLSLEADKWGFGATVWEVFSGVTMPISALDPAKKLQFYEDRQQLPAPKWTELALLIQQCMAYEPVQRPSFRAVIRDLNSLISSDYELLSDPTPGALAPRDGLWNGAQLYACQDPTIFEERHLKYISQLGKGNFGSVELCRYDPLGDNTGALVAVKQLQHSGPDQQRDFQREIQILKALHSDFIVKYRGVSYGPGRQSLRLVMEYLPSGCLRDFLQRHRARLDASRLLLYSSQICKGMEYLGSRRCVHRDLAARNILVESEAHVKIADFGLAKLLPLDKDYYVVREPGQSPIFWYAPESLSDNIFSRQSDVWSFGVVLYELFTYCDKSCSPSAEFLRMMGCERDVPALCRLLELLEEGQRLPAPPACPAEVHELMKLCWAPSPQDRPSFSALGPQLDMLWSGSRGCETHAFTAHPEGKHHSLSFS

PDK1 = target: T3, PDK1 (Homo sapiens, UniProt O15530); experiment: ExpresS Diversity Kinase Profile, Cerep (LANCE): PDK1
T3 sequence (O15530 1-556): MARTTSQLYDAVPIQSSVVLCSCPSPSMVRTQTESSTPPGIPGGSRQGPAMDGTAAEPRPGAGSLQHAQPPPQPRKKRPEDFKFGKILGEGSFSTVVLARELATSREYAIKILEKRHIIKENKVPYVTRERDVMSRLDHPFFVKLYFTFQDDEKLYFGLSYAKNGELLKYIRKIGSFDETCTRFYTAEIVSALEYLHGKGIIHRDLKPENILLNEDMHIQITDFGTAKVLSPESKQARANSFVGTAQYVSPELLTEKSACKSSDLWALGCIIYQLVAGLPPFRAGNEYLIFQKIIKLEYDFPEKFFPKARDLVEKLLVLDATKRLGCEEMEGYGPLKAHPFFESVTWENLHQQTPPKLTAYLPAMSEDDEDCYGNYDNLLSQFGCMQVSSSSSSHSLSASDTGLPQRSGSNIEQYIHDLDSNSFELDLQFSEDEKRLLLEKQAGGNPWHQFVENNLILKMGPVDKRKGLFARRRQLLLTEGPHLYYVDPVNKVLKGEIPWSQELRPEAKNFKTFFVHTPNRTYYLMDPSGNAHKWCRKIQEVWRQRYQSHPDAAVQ

[1] = n = 2, read-out: % Inhibition of control values, Mean
[2] = read-out: % Inhibition of control values, 1st measurement
[3] = read-out: % Inhibition of control values, 2nd measurement

Sequence of Src (P12931 whole entry): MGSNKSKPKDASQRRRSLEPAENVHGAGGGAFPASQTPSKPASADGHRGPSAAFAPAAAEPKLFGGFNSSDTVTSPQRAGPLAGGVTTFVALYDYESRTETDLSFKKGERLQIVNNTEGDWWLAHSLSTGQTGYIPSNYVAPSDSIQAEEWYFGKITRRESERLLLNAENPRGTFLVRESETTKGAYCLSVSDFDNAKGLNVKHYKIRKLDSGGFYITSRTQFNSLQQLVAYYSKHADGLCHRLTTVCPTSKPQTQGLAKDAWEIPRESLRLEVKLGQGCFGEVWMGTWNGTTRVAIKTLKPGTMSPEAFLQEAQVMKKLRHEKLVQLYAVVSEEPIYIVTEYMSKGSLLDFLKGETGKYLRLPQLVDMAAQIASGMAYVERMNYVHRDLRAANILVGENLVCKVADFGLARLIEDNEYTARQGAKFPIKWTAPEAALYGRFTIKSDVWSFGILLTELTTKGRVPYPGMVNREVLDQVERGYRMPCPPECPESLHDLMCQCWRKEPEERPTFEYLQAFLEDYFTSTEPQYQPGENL

CN[C@@H]1C[C@H]2O[C@@](C)([C@@H]1OC)n1c3ccccc3c3c4c(c5c6ccccc6n2c5c31)C(=O)NC4 [Staurosporine, reference compound]
nHill (Src; control): 1.0
nHill (TAOK2; control): 1.6
nHill (JAK3; control): 2.2
nHill (PDK1; control): > 3

CC1(C)CCC2=C(O1)c1ccccc1C(=O)C2=O [β-Lapachone]
inhibition at 150 µM (Src; [1]): 37.8%
inhibition at 150 µM (Src; [2]): 36.1%
inhibition at 150 µM (Src; [3]): 39.5%
inhibition at 150 µM (TAOK2; Flag: Interference, read-out: % Inhibition of control values, 1st measurement): 32.9%
inhibition at 150 µM (TAOK2; Flag: Interference, read-out: % Inhibition of control values, 2nd measurement): 33.1%
inhibition at 150 µM (TAOK2; n = 2, Flag: Interference, read-out: % Inhibition of control values, Mean): 33%
inhibition at 150 µM (JAK3; [1]): 69%
inhibition at 150 µM (JAK3; [2]): 83.6%
inhibition at 150 µM (JAK3; [3]): 54.5%
inhibition at 150 µM (PDK1; [1]): 1.4%
inhibition at 150 µM (PDK1; [2]): 8.9%
inhibition at 150 µM (PDK1; [3]): -6.1%
